Results taken from patent US12037344B2, “NLRP3 modulators” (INNATE TUMOR IMMUNITY, INC., priority 2018, dated 2024).
Where two headings read alike, the source gives them in different places.

Experiments:
THP-1 cells = test: Measurement of IL-1β production, hTRF protocol (second alternative procedure), THP-1 cells; assay type: cell-based, human; settings: Homo sapiens
Method in brief: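 Compounds, dilution series starting at a final 10 μM, were incubated 2 hours at 37° C with PMA-differentiated THP-1 cells (50 ng/ml overnight; 50,000 cells/well, 2% FBS RPMI). Released IL-1β quantified in supernatant by hTRF kit with 1:40 antibody dilution, 4° C overnight, 665/615 nm ratio.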

TLR7 = molecular target: T1, TLR7 (Homo sapiens, UniProt Q9NYK1); test: In vitro human TLR7 binding reporter assay (HEK-Blue, NF-kB/AP1-inducible SEAP); assay type: cell-based; settings: read-out: TLR7 Agonist EC50
T1 construct: human HEK-Blue cells co-expressing a TLR7 or TLR8 gene
T1 sequence (Q9NYK1 27-1049): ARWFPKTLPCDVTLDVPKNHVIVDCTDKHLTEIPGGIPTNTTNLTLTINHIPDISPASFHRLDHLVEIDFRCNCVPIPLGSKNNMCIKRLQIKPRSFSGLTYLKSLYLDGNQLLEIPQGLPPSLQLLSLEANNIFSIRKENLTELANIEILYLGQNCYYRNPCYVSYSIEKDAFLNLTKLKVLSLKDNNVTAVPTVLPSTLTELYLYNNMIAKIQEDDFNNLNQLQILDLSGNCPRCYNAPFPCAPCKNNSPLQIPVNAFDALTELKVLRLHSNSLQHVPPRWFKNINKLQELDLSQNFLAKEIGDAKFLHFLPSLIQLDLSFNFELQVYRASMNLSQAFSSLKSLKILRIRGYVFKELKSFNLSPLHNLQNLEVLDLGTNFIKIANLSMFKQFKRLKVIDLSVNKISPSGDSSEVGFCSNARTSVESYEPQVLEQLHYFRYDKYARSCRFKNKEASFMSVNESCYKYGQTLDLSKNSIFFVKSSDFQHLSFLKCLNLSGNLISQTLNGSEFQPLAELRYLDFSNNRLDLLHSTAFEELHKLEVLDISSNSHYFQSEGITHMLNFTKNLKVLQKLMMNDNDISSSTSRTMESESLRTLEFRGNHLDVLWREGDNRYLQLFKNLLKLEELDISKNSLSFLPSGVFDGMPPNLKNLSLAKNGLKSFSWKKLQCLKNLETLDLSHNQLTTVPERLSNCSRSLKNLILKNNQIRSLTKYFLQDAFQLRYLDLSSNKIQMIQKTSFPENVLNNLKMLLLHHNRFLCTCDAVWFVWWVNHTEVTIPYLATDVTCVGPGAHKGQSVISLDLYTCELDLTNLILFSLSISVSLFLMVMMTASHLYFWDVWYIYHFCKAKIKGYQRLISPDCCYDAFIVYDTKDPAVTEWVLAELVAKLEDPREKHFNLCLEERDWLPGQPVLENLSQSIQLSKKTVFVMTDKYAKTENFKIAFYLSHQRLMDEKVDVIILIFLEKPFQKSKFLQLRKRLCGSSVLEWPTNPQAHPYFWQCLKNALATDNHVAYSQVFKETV
Method in brief: (§1)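 HEK-Blue cells expressing human TLR7 or TLR8 with NF-kB/AP1-inducible SEAP reporter, plated 24 h, then compound-treated 18 h at 37° C, 5% CO2. EC50 normalized to 100% Ymax set by 50 μM reference standard.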

TLR8 = molecular target: T2, TLR8 (Homo sapiens, UniProt Q9NR97); test: In vitro human TLR8 binding reporter assay (HEK-Blue, NF-kB/AP1-inducible SEAP); assay type: cell-based; settings: read-out: TLR8 Agonist EC50
T2 construct: human HEK-Blue cells co-expressing a TLR7 or TLR8 gene
T2 sequence (Q9NR97 27-1041): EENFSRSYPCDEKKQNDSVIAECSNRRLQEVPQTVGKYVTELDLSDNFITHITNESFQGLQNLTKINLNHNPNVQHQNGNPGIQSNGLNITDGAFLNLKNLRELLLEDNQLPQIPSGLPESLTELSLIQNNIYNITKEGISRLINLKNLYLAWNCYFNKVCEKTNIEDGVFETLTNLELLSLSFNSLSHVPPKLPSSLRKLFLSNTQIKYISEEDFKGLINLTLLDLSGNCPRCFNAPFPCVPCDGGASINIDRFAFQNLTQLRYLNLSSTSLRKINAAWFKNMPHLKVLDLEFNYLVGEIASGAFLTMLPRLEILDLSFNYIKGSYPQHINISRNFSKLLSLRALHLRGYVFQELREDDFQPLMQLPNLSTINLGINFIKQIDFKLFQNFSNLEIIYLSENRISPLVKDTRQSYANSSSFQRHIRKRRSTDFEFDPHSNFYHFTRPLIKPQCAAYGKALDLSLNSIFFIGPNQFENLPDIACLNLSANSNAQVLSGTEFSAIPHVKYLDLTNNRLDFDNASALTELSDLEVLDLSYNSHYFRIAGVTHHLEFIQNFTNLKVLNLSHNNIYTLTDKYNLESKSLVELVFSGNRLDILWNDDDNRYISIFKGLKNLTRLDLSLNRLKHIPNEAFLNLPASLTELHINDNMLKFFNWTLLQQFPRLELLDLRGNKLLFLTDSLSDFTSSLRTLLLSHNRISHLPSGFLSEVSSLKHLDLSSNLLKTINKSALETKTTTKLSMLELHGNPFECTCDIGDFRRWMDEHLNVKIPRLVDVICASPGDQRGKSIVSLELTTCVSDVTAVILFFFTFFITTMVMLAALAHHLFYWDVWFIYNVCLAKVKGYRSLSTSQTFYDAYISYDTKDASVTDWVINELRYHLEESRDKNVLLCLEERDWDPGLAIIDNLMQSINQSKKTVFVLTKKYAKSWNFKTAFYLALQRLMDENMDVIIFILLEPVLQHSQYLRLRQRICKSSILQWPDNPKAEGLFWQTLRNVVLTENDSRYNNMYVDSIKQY
Method in brief: as §1

[1] = THP-1, IL-1β production, human, read-out: NLRP3 hILIB EC50
[2] = THP-1, IL-1β production, human cells, read-out: NLRP3 hILIB EC50

Structure (SMILES) | EC50 (THP-1 cells; [1]) | EC50 (TLR7; activity range class) | EC50 (TLR8; activity range class) | EC50 (THP-1 cells; [2]) | EC50 (TLR7; activity range) | EC50 (TLR8; activity range) | EC50 (THP-1 cells; THP-1, read-out: NLRP3 hILIB EC50)
CC(Cn1cc2c(N)nc3cc(-c4ccn[nH]4)ccc3c2n1)NC(=O)C(C)(C)F (stereo not drawn) [Example 273] | 5.16 µM | > 100 µM | > 100 µM |  |  |  | 
CC(C)OCC(O)Cn1cc2c(N)nc3cc(-c4cc[nH]n4)ccc3c2n1 (stereo not drawn) [Example 371] | 1.94 µM | > 100 µM | > 100 µM |  |  |  | 
CC(C)(F)C(=O)NCCn1cc2c(N)nc3cc(-c4cc[nH]n4)ccc3c2n1 [Example 203] | 3.49 µM | > 100 µM | > 100 µM |  |  |  | 
Cc1nc(C(=O)NCCn2cc3c(n2)c(N)nc2cc(-c4cc[nH]n4)ccc23)co1 [Example 76] | 0.33 µM | > 100 µM | > 100 µM |  |  |  | 
CC(=O)N1CCOCC1Cn1cc2c(N)nc3cc(-c4ccn[nH]4)ccc3c2n1 (stereo not drawn) [Example 269] | 4.38 µM | > 100 µM | > 100 µM |  |  |  | 
CCn1cc2c(n1)c(N)nc1cc(-c3ccn[nH]3)ccc12 [Example 188] | 0.21 µM | > 100 µM | > 100 µM |  |  |  | 
Nc1nc2cc(-c3cc[nH]n3)ccc2c2cn(CCNC(=O)c3ccncn3)nc12 [Example 75] | 0.64 µM | > 100 µM | > 100 µM |  |  |  | 
CN(C)CCn1nc2c(N)nc3cc(-c4ccn[nH]4)ccc3c2n1 [Example 161] | 5.82 µM | > 100 µM | > 100 µM |  |  |  | 
C[C@H](O)Cn1cc2c(N)nc3cc(-c4cc[nH]n4)c(F)cc3c2n1 [Example 405] |  |  |  | 0.69 µM | > 100 µM | > 100 µM | 
Cc1nc(C)c(C(=O)NCCn2cc3c(n2)c(N)nc2cc(-c4cc[nH]n4)ccc23)o1 [Example 46] | 4.19 µM | > 100 µM | > 100 µM |  |  |  | 
CCN(Cc1nc2c(N)nc3cc(-c4ccn[nH]4)ccc3c2s1)C(C)=O [Example 140, N-{[4-amino-7-(1H-pyrazol-3-yl)-[1,3]thiazolo[4,5-c]quinolin-2-yl]methyl}-N-ethylacetamide] | 1.65 µM | > 100 µM | > 100 µM |  |  |  | 
CNC(=O)C(C)(C)n1cc2c(N)nc3cc(-c4cc[nH]n4)ccc3c2n1 [Example 513] |  |  |  | 1.28 µM | > 100 µM | > 100 µM | 
Nc1nc2cc(-c3cc[nH]n3)ccc2c2cn(CCNC(=O)c3csc(Cl)n3)nc12 [Example 88] | 0.13 µM | 20 to 100 µM | 20 to 100 µM |  |  |  | 
COc1ccc(C(=O)NCCn2cc3c(n2)c(N)nc2cc(-c4cc[nH]n4)ccc23)nn1 [Example 51] | 18.8 µM | > 100 µM | > 100 µM |  |  |  | 
Nc1nc2cc(-c3cc[nH]n3)ccc2c2cn(CCNC(=O)c3ccc(OC(F)(F)F)cn3)nc12 [Example 67] | 0.38 µM | > 100 µM | > 100 µM |  |  |  | 
CN(CCn1cc2c(n1)c(N)nc1cc(-c3cc[nH]n3)ccc12)Cc1ccccc1 [Example 121, 2-{2-[benzyl(methyl)amino]ethyl}-7-(1H-pyrazol-3-yl)-2H-pyrazolo[3,4-c]quinolin-4-amine] |  | > 100 µM | > 100 µM |  |  |  | 0.85 µM
COC1CCCN(CCn2cc3c(N)nc4cc(-c5ccn[nH]5)ccc4c3n2)C1 (stereo not drawn) [Example 265] | 2.47 µM | > 100 µM | > 100 µM |  |  |  | 

Structure (SMILES) | EC50 (THP-1 cells; [1]) | EC50 (TLR7; activity range class) | EC50 (TLR8; activity range class) | EC50 (THP-1 cells; [2]) | EC50 (TLR7; activity range) | EC50 (TLR8; activity range) | EC50 (THP-1 cells; THP-1, read-out: NLRP3 hILIB EC50)
CCS(=O)(=O)CCn1cc2c(n1)c(N)nc1cc(-c3cc[nH]n3)ccc12 [Example 526] |  |  |  | 0.7 µM | > 100 µM | > 100 µM | 
Nc1nc2cc(-c3cc[nH]n3)ccc2c2cn(CCNC(=O)c3cscn3)nc12 [Example 95] | 0.09 µM | > 100 µM | > 100 µM |  |  |  | 
Nc1nc2cc(-c3cc[nH]n3)ccc2c2c1cnn2C1COC1 [Example 242] | 0.68 µM | > 100 µM | > 100 µM |  |  |  | 
Nc1nc2cc(-c3cc[nH]n3)ccc2c2cn(CCNC(=O)c3ccc(F)cc3)nc12 [Example 42] | 0.67 µM | > 100 µM | > 100 µM |  |  |  | 
Nc1nc2cc(-c3cc[nH]n3)ccc2c2cn(CCNC(=O)c3ncc(Cl)cc3F)nc12 [Example 85] | 0.4 µM | 20 to 100 µM | 20 to 100 µM |  |  |  | 
COC(=O)c1cccc(C(=O)NCCn2cc3c(n2)c(N)nc2cc(-c4cc[nH]n4)ccc23)n1 [Example 63] | 1.61 µM | > 100 µM | > 100 µM |  |  |  | 
Nc1nc2cc(-n3cccn3)ccc2c2nn(CC3COCCN3)cc12 (stereo not drawn) [Example 433] |  |  |  | 4.58 µM | > 100 µM | > 100 µM | 
CNCCn1cc2c(N)nc3cc(-c4ccn[nH]4)ccc3c2n1 [Example 277] | 2.33 µM | > 100 µM | > 100 µM |  |  |  | 
COCC(C)n1cc2c(N)nc3cc(-c4cc[nH]n4)ccc3c2n1 (single isomer, unassigned) [Example 337] | 0.22 µM | > 100 µM | > 100 µM |  |  |  | 
Nc1nc2cc(-c3cc[nH]n3)ccc2c2cn(Cc3cccnc3)nc12 [Example 167] | 0.15 µM | > 100 µM | > 100 µM |  |  |  | 
COC(C)Cn1cc2c(N)nc3cc(-c4cc[nH]n4)ccc3c2n1 (stereo not drawn) [Example 331] | 0.08 µM | > 100 µM | > 100 µM |  |  |  | 
Nc1nc2cc(-n3cccn3)ccc2c2nn(CCCO)cc12 [Example 251, 3-(4-amino-7-(1H-pyrazol-1-yl)-2H-pyrazolo[4,3-c]quinolin-2-yl)propan-1-ol] | 0.62 µM | > 100 µM | > 100 µM |  |  |  | 
Nc1nc2cc(-c3cc[nH]n3)ccc2c2nn(CCC(=O)NCC(F)F)cc12 [Example 515] |  |  |  | 4.09 µM | > 100 µM | > 100 µM | 
Nc1nc2cc(-c3cc[nH]n3)ccc2c2nn(CC(F)F)cc12 [Example 224] | 0.14 µM | > 100 µM | > 100 µM |  |  |  | 
Nc1nc2cc(-c3cc[nH]n3)ccc2c2cn(Cc3nnc(-c4ccccc4)o3)nc12 [Example 172] | 0.21 µM | > 100 µM | > 100 µM |  |  |  | 
CC(Cn1cc2c(N)nc3cc(-n4cccn4)ccc3c2n1)NC(=O)C(C)(C)F (stereo not drawn) [Example 431] |  |  |  | 1.23 µM | > 100 µM | > 100 µM | 
Nc1nc2cc(-c3ccn[nH]3)ccc2c2nn(CCCNS(=O)(=O)c3ccccc3)cc12 [Example 587] |  |  |  | 2.39 µM | > 100 µM | > 100 µM | 
